According to patent US20260209199A1, “TRISULFIDE COMPOUND” (Kyowa Pharma Chemical Co., Ltd., priority 2022, published 2026):

Tests used:
[1] = physchem
Method: (§1) Then, 10 mL of octanol was added to each aqueous solution and shaken for 1 minute. 2 mL each was taken from the aqueous layer and the octanol layer, centrifuged, and allowed to stand for 1 hour. 1 mL was precisely measured from the standing solution, 2-propanol was added, and the volume was made up to 10 mL. […] (log P=log10 (concentration in octanol layer/concentration in aqueous layer))

[2] = disclosed in Patent Literature 2 (WO2022/045052); cited from earlier work
[3] = Octanol/water partition coefficient (log P), HPLC; conditions: octanol/purified water, log10(concentration in octanol layer/concentration in aqueous layer)
Method: as §1

logP [1]	Compound	hydrogen sulfide elimination effect [2]	Partition coefficient (logP) [3]
1.56	CC1(C)OCC(C)(C)[C@H](C(=O)NCCC(=O)NCCSSSCCNC(=O)CCNC(=O)[C@@H]2OC(C)(C)OCC2(C)C)O1 [Acetonide-PTN-SSS, acetonide derivative of pantethine trisulfide]		
0.91	CC(=O)OCC(C)(C)[C@@H](O)C(=O)NCCC(=O)NCCSSSCCNC(=O)CCNC(=O)[C@H](O)C(C)(C)COC(C)=O [Ac-PTN-SSS, acetyl derivative of pantethine trisulfide]		
	CC(C)(CO)[C@@H](O)C(=O)NCCC(=O)NCCSSSCCNC(=O)CCNC(=O)[C@H](O)C(C)(C)CO [PTN-SSS, Pantethine trisulfide]	has a hydrogen sulfide elimination effect	−0.39
